Results on two compounds are retold here after ChEMBL document CHEMBL1144195, “Synthesis and antitumor activity of C-9 epimers of the tetrahydrofuran containing acetogenin 4-deoxyannoreticuin” (2008).

≈ marks a conversion by molar mass, not a printed value.

The subject of one test is Jurkat. Briefly: Cytotoxicity against human Jurkat cells after 72 hrs by MTS method. The format is functional. (Tetrazolium assays rely on reduction of a dye to a coloured formazan, in cell work by metabolically active cells.)
A further test concerns PC-3. Briefly: Cytotoxicity against human PC-3 cells after 72 hrs by MTS method. The format is functional. The conditions noted are these: PC-3, 72 h.

For `CCCCCCCCCCCC[C@@H](O)[C@H]1CC[C@H]([C@H](O)CCCCC[C@H](O)CCCCCCC2=C[C@H](C)OC2=O)O1`, the concentration for 50% growth inhibition (GI50) was 5 µg/mL (≈ 8.61 µM) in the test with Jurkat and 15 µg/mL (≈ 25.8 µM) with PC-3.
The like results for `CCCCCCCCCCCC[C@@H](O)[C@H]1CC[C@H]([C@H](O)CCCCC[C@@H](O)CCCCCCC2=C[C@H](C)OC2=O)O1` were, in that order, 5 µg/mL (≈ 8.61 µM) and 10 µg/mL (≈ 17.2 µM).

As a reminder, the GI50 is the concentration that inhibits growth by half. A high value points to lower sensitivity of the cells.
